{"source": "paper PMC6153434", "about": "“Bystander Effects of Hypoxia-Activated Prodrugs: Agent-Based Modeling Using Three Dimensional Cell Cultures” (Frontiers in Pharmacology, 2018)", "key": {"[1]": {"assay": "physchem"}, "[2]": {"test_system": "POR-G activators and PORko-R targets (HCT116)"}, "[3]": {"test_system": "high-POR 'activator' HCT116 cell lines (POR-R, POR-G)", "format": "cell-based", "conditions": "monolayer cultures"}, "[4]": {"test_system": "POR-null 'target' HCT116 cell lines (PORko-R, PORko-G)", "assay": "Monolayer clonogenic assay under anoxia (targets)", "format": "cell-based", "conditions": "monolayer cultures, anoxic exposure 1 h (used for ABM analysis, Figure 9A)", "description": "Log-phase cells were trypsinized and cell pellets, collected by centrifugation, were transferred to a Bactron anaerobic chamber (Sheldon Manufacturing Inc., Cornelius, OR, United States) under 3–5% H2/5% CO2/balance N2, <100 ppm O2, with a palladium/activated carbon catalyst to maintain anoxia. (The term “anoxia” is used throughout to refer to the gas phase, without necessarily implying complete anoxia in monolayers or spheroids as discussed below.) Cells were resuspended and seeded at 10^5 cells/0.15 mL in 96-well plates using medium and plates equilibrated in the chamber for 3 days to ensure complete deoxygenation. After incubation at 37 °C for 2 h for cell attachment, cells were exposed to drugs for 1 h, removed from the chamber, trypsinized, counted with a Coulter counter (model Z2; Beckman Coulter^TM, Indianapolis, IN, United States) and plated in 6-well plates. After 10 days, plates were stained with methylene blue (2 g/L in EtOH:H2O, 1:1 v/v) and colonies with more than 50 cells were counted. Plating efficiency (PE) was calculated as number of colonies/number of cells plated, and surviving fraction (SF) was determined as PE(drug treated)/PE(control)."}, "[5]": {"test_system": "HCT116 and HCT116/POR#6", "conditions": "cited from earlier work"}, "[6]": {"test_system": "high-POR 'activator' HCT116 cells in spheroids", "assay": "Spheroid clonogenic assay under anoxia (activators in co-culture spheroids)", "format": "cell-based", "conditions": "spheroids comprising 100% activators, anoxic exposure 1 h (Figure 9B)"}, "[7]": {"test_system": "POR-null 'target' HCT116 cells in spheroids", "format": "cell-based"}, "[8]": {"conditions": "published value, PR104H+M model, ref Foehrenbacher et al., 2013"}, "[9]": {"conditions": "published value, ref Foehrenbacher et al., 2013"}}, "data": [{"smiles": "CS(=O)(=O)OCCN(CCBr)c1c(C(=O)NCCO)cc([N+](=O)[O-])cc1[N+](=O)[O-]", "note": "[PR104A]", "values": [{"measurement": "half-life", "setting": "[1]", "result": 10.2, "unit": "h"}, {"measurement": "Activator F2, proportion of O2-dependent rate of metabolism of the drug in activators", "setting": "[2]", "result": 0.977}, {"measurement": "Activator Kmet,0, rate constant for the maximum rate of metabolism in activator cells under anoxia", "setting": "[2]", "result": 2, "unit": "min⁻¹"}, {"measurement": "Hill parameter n", "setting": "[2]", "result": 2}, {"measurement": "KO2, O2 concentration for half-maximum prodrug activation", "setting": "[2]", "result": 0.126}, {"measurement": "Kc, intrinsic cytotoxic potency", "setting": "[2]", "result": 0, "unit": "M⁻¹ s⁻¹"}, {"measurement": "Kin, rate constant for transfer from the extracellular to the intracellular compartment", "setting": "[2]", "result": 3, "unit": "min⁻¹"}, {"measurement": "Kout, rate constant for transfer from the intracellular to the extracellular compartment", "setting": "[2]", "result": 0.5, "unit": "min⁻¹"}, {"measurement": "Target F2, proportion of O2-dependent rate of metabolism of the drug in targets", "setting": "[2]", "result": 0.977}, {"measurement": "Target Kmet,0, rate constants for the maximum rate of metabolism in target cells under anoxia", "setting": "[2]", "result": 0.03, "unit": "min⁻¹"}, {"measurement": "PR-104A concentration giving 90% kill", "setting": "[3]; activators, anoxic exposure 1 h (used for ABM analysis, Figure 9A)", "result": 1, "unit": "µM"}, {"measurement": "sensitivity of activator cell lines (clonogenic survival)", "setting": "[3]; 1 h under anoxia, relative to targets", "result": "marked increases in the sensitivity"}, {"measurement": "PR-104A concentration giving 90% kill", "setting": "[4]", "result": 17, "unit": "µM"}, {"measurement": "Half-life, non-enzymatic loss in culture medium", "setting": "[5]; 37 °C, published value, PR104H+M model, ref Foehrenbacher et al., 2013", "result": 10.2, "unit": "h"}, {"measurement": "Activator Kmet,0, rate constant for the maximum rate of metabolism in activator cells under anoxia", "setting": "[5]; [8]", "result": 1.08, "unit": "min⁻¹"}, {"measurement": "Kc, intrinsic cytotoxic potency", "setting": "[5]; [8]", "result": 0, "unit": "M⁻¹ s⁻¹"}, {"measurement": "Kin, rate constant for transfer from the extracellular to the intracellular compartment", "setting": "[5]; [8]", "result": 3, "unit": "min⁻¹"}, {"measurement": "Kout, rate constant for transfer from the intracellular to the extracellular compartment", "setting": "[5]; [8]", "result": 0.5, "unit": "min⁻¹"}, {"measurement": "Target Kmet,0, rate constants for the maximum rate of metabolism in target cells under anoxia", "setting": "[5]; [8]", "result": 0.054, "unit": "min⁻¹"}, {"measurement": "Activator F2, proportion of O2-dependent rate of metabolism of the drug in activators", "setting": "[5]; [9]", "result": 0.977}, {"measurement": "Hill parameter n", "setting": "[5]; [9]", "result": 1}, {"measurement": "Target F2, proportion of O2-dependent rate of metabolism of the drug in targets", "setting": "[5]; [9]", "result": 0.977}, {"measurement": "KO2, O2 concentration for half-maximum prodrug activation", "setting": "[5]; published value, ref Hicks et al., 2007", "result": 0.126}, {"measurement": "KO2 (sensitivity of PR104A metabolism to oxygen)", "setting": "[5]; ref Hicks et al., 2007", "result": 0.126, "unit": "µM"}, {"measurement": "concentration giving 90% kill in spheroids", "setting": "[6]", "result": 5, "unit": "µM"}, {"measurement": "killing of target cells as proportion of activators increases", "setting": "[7]; co-culture spheroids 0, 10, 50 or 100% activators, 1 h under anoxia", "result": "markedly increased with increasing proportion of POR-G activator cells"}, {"measurement": "bystander effect", "setting": "[7]; spheroid co-cultures with ABM simulation, anoxia", "result": "clearly demonstrated the existence of a bystander effect"}, {"measurement": "concentration giving 90% kill in spheroids", "setting": "[7]; spheroids comprising 100% targets, anoxic exposure 1 h (Figure 9B)", "result": 20, "unit": "µM"}]}]}
